{"source": "patent US20080312333A1", "about": "“Agent for Preventing/Ameliorating Life Style-Related Diseases Containing Turmeric Essential Oil Component” (Kaneka Corporation, priority 2004, published 2008)", "biological_target": "T1, PPARγ (Homo sapiens, UniProt P37231)", "T1 construct": "GAL4 (yeast transcription factor, amino acids 1-147); expressed in transfected cells; host or cells: CV-1 cells (African green monkey kidney)", "T1 sequence (P37231 204-505)": "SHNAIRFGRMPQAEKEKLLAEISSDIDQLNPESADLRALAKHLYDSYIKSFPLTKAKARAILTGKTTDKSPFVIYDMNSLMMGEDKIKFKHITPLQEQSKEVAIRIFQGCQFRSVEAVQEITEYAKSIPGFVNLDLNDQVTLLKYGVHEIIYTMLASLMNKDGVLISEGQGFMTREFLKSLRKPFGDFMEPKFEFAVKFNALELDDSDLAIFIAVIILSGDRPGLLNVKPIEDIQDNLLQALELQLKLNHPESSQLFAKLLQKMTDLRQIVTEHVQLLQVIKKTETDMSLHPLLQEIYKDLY", "experiment": "PPARγ ligand activity, GAL4-PPARγ ligand binding site luciferase reporter in CV-1 cells", "assay_type": "cell-based", "details": "for PPARγ ligand activity: ratio to no treatment control (1.00), mean ± standard error, n = 3", "experimental": "CV-1 cells (male African green monkey kidney-derived cultured cells) were seeded onto a 96-well culture plate (6×10^3 cells/well) and cultured under conditions of 37° C. and 5% CO2 for 24 hours. The medium used was DMEM (Dulbecco's modified Eagle medium; GIBCO) supplemented with 10% FBS (fetal bovine serum), 10 ml/L of a solution of penicillin and streptomycin (5,000 IU/ml and 5,000 μg/ml, respectively; GIBCO) and 37 mg/L of ascorbic acid (Wako Pure Chemical Industries, Ltd.). […] Each sample was dissolved in dimethyl sulfoxide (DMSO) and the solution, or DMSO used in a no treatment control group, was added to the medium to each concentration given in Table 4. Cells were washed with phosphate-buffered saline (PBS+) containing Ca and Mg, then luclite (PerkinElmer), a luciferase chemiluminescence reagent, was added, and the luciferase-due chemiluminescence intensity was measured using a TopCount microplate scintillation/luminescence counter (PerkinElmer)."}
{"smiles": "CC(C)=CC(=O)C[C@H](C)c1ccc(C)cc1", "note": "[ar-turmerone]", "values": [{"measurement": "PPARγ ligand activity", "setting": "addition level 2 μg/ml", "value": "1.51 ± 0.14"}, {"measurement": "PPARγ ligand activity", "setting": "addition level 5 μg/ml", "value": "2.33 ± 0.59"}, {"measurement": "PPARγ ligand activity (in words)", "setting": "summary of Table 4", "value": "found to have PPARγ ligand activity"}]}
